Test results published in patent publication US5602156A, “Method for inhibiting metalloproteinase expression” (The United States of America as represented by the …, priority 1994, dated 1997).

How the values were obtained:
MMP-2 = assay: Gelatin zymography of A2058 cells, compound 1 with or without TGF-β1 (densitometry); assay type: cell-based, human; settings: control band = 100%
Protocol: (§1) Conditioned media for zymogram and Western blot analysis were produced under serum-free conditions. Cells (2 million) were plated in 25 cm^2 flasks in serum-containing medium and cultured overnight. Serum-containingmedium was removed and the cell monolayers were washed twice with DMEM/ITS (DMEM containing insulin (5 μg/mL), transferrin (5 μg/mL), and selenium (5 ng/mL)). The resultant cells were fed with 3 mL of DMEM/ITS and additives as described in the Examples for two 24 hour periods. Conditioned media samples were collected at 24 hours and cells were refed with fresh DMEM/ITS containing the described additives for an additional 24 hours. Conditioned media samples were centrifuged to remove cells and debris then frozen at -20° C. until use. Freeze and thaw cycles of the conditioned media were limited to no more than two.
(§2) A2058 human melanoma cells, human HT1080 fibrosarcoma cells, and OVCAR3 human ovarian cancer cells were incubated with increasing concentrations of compound 1 (0.2-20 μM) or DMSO control (0.05%) and subjected to gelatin zymography. Aliquots of conditioned medium (15 μL) were electrophoresed on gelatin-containing 10% PAGE gels under nonreducing but denaturing conditions. These conditions allow the different gelatin-degrading species (MMPs) to separate by size. The enzymes renature after removal of the SDS by incubation of the gel with 2.5 % Triton X-100, and degrade the gelatin substrate present in the polyacrylamide gel upon overnight incubation in low salt collagenase buffer. Bands of clearing, seen after Coomassie blue staining correspond to areas of gelatinase activity.
(§3) A2058 and HT1080 cells were incubated with compound 1 (2 μM), with or without TGF-β1 (5 ng/mL) for 24 and 48 hours prior to harvest of conditioned media. Aliquots were subjected to gelatin zymography as described in Example 1. Known concentrated conditioned medium from HT1080 cells was used for identification of the gelatinase species (92 kDa, gelatinase B/MMP-9; 72 kDa, gelatinase A/MMP-2 latent form; 65 kDa intermediate and 62 kDa activated forms of MMP-2).
(§4) Lane 1 is the control resulting from treatment of the cells with 0.1% DMSO. Lanes 2 and 3 correspond to those cells which are treated with 2 μM compound 1 in the absence of TGF-β1 for 24 and 48 hours, respectively. Lane 4 corresponds to cells which have been treated with TGF-β1 in the absence of compound 1. Lane 5 corresponds to cells which have been treated with TGF-β1 for 48 hours with compound 1 being added to the incubation mixture for the final 24 hours. Lane 6 corresponds to cells which have been treated for 48 hours with both TGF-β1 and compound 1.
(§5) *The control band was defined as 100% gelatinase activity and the other
(§6) bands were normalized to it. Numbers reflect triplicate measurements from
(§7) each zymogram band of representative zymograms. Standard deviations, not

MMP-9 = assay: Gelatin zymography of HT1080 cells, compound 1 with or without TGF-β1 (densitometry), 92 kDa; assay type: cell-based, human; settings: control band = 100%
Protocol: as §1, §2, §3, §4, §5, §6, §7

arachidonic acid release = settings: cited from earlier work
[1] = with TGF-β1, 2 μM compound 1, 24 hr
[2] = with TGF-β1, 2 μM compound 1, 48 hr
[3] = without TGF-β1, 2 μM compound 1, 24 hr
[4] = without TGF-β1, 2 μM compound 1, 48 hr

In the case of `NC(=O)c1nnn(Cc2cc(Cl)c(C(=O)c3ccc(Cl)cc3)c(Cl)c2)c1N` [Compound 1, 5-amino-l-(4-(4-chlorobenzoyl)-3,5-dichlorobenzyl)-1,2,3-triazole-4-carboxamide], the “gelatinase activity, 65 + 62 kDa” value (MMP-2; [1]) is reported as 0%, the “gelatinase activity, 72 kDa” value (MMP-2; [1]) is reported as 44% and the “gelatinase activity, 65 + 62 kDa” value (MMP-2; [2]) is reported as 0%. The “gelatinase activity, 72 kDa” value (MMP-2; [2]) was 36%, the “gelatinase activity, 65 + 62 kDa” value (MMP-2; [3]) was 14% and the “gelatinase activity, 72 kDa” value (MMP-2; [3]) was 84%. For the same molecule, the “gelatinase activity, 65 + 62 kDa” value (MMP-2; [4]) was 0%, the “gelatinase activity, 72 kDa” value (MMP-2; [4]) was 45% and the “gelatinase activity, 92 kDa” value (MMP-9; with TGF-β, 2 μM compound 1, 24 hr) was 78%. The “gelatinase activity, 92 kDa” value (MMP-9; with TGF-β, 2 μM compound 1, 48 hr) was 14%, the “gelatinase activity, 92 kDa” value (MMP-9; without TGF-β, 2 μM compound 1, 24 hr) was 73% and the “gelatinase activity, 92 kDa” value (MMP-9; without TGF-β, 2 μM compound 1, 48 hr) was 12%. The arachidonic acid release (arachidonic acid release) was “inhibits”.
